pIC50: −log10 of the molar value. Like-named read-outs stand apart in the source and are kept apart here.
What was measured:
GST-TβR-I [1] = biological target: T1, GST-TβR-I (Homo sapiens, UniProt P36897, T204D); assay: In vitro kinase assay: phosphorylation of GST-Smad3deltaMH1 by GST-TβR-I; assay type: biochemical
T1 construct: the complete cytoplasmic part (amino acid residues 148-503) of constitutively active TβR-I (T204D) FLAG-tagged at the C-terminus; made in house; host or cells: E. coli
T1 sequence (P36897 148-503 T204D): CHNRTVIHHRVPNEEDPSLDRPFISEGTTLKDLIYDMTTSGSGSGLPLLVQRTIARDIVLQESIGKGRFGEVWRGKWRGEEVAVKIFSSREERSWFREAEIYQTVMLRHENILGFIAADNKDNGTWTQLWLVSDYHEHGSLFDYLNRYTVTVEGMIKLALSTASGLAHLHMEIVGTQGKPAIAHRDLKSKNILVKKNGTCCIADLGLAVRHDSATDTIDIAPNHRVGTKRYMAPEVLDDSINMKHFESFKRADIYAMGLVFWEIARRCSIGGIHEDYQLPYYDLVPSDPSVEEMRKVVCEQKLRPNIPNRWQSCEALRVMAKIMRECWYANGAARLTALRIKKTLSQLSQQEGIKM

[2] = system: phosphorylation of endogenous Smad2 by TβR-I in Mv1Lu cells; assay: TGFβ1-dependent phosphorylation of endogenous Smad2 in Mv1Lu cells (pS2 immunoblot); assay type: cell-based; conditions: for Effect of low molecular weight inhibitors on TGFβ1-dependent phosphorylation of Smad2: Mv1Lu cells, TGFβ1 10 ng/ml 30 min, FIG. 3A
GST-TβR-I [3] = biological target: T1, GST-TβR-I; assay: GST-TβR-I autophosphorylation assay; assay type: biochemical; conditions: peptides at 1 and 10 μM, FIG. 4A
Experimental: In vitro kinase assay: GST-TβRI activity was assayed in vitro using the known TβR-I substrates GST-Smad3deltaMH1, GST-Smad2; GST-Smad1 was used as a control for specificity. The reaction mixture (20 μl) contained 20 mM HEPES (pH 7.4), 10 mM MgCl2, 2 mM MnCl2, 1 mM dithiothreitol (DTT), 5 μM ATP plus 0.5 μCi [γ^32P]ATP (Redivue, Amersham Biosciences), and inhibitors at different concentrations. The reaction was initiated by an addition of 0.02 μg purified GST-TβRI, followed by incubation at 22° C. for 20 min. Reaction was terminated by addition of 5 μl of 5× SDS-sample buffer. Samples were subjected to SDS-PAGE followed by analysis in a FujiX2000 phosphorimager. For all in vitro enzyme assays, the percent inhibition was calculated as 100×(1-Ai/A0), where Ai and A0 are levels of GST-Smad phosphorylation in the presence and absence of inhibitors, respectively. […] Phosphorylated GST-Smad3deltaMH1 and autophosphorylated GST-TβRI were analyzed by tryptic phosphopeptide mapping, as described previously.
A GST-TβR-I autophosphorylation assay was performed in the absence or presence of antp-Sm2S (SEQ ID NO:3), antp-Sm2A (SEQ ID NO:2) and antp-Sm5A (SEQ ID NO:4) peptides at concentrations of 1 and 10 μM, as indicated (FIG. 4A).

[4] = biological target: T2, constitutively active TβR-I (Homo sapiens, UniProt P36897, T204D); assay: In vitro kinase assay with immunoprecipitated constitutively active TβR-I expressed in Mv1Lu cells; assay type: biochemical; conditions: immunoprecipitated from Mv1Lu cells, data not shown
T2 construct: made in house; host or cells: Mv1Lu cells (expressed, immunoprecipitated)
T2 sequence (P36897 34-503 T204D): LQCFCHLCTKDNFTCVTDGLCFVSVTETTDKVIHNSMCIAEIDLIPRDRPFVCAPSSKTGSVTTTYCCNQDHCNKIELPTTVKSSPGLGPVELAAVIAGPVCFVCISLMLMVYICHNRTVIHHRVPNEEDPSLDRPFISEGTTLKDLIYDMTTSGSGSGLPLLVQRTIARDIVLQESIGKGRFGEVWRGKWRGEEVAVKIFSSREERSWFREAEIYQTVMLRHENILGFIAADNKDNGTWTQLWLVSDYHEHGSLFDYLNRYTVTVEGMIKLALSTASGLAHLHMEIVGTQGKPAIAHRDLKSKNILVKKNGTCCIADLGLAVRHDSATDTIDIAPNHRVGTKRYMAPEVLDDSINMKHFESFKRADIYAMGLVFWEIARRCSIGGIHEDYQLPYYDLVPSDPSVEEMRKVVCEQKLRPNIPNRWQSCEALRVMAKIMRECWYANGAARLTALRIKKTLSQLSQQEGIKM

Mv1Lu cells = assay: Growth inhibition assay, [3H]thymidine incorporation; assay type: cell-based; conditions: peptide 50 μM, TGFβ1 0.1 ng/ml, 24 hours, FIG. 7
Experimental: Growth inhibition assay: Growth inhibition assay with MV1Lu cells, using evaluation of [^3H]thymidine incorporation, was performed as described earlier. Briefly, cells were preincubated with peptides for 30 min, and then treated or not with TGFβ1 (0.1 ng/ml) for 24 h. During the last two hours of incubation, [^3H]thymidine was added. Radioactivity incorporated into DNA was measured in a scintillation counter. No cytotoxic effects of peptides were observed after 24 h incubation with cells, as evaluated by observation of cells in a microscope.
To explore whether the antp-Sm2A (SEQ ID NO:2) peptide can interfere with the TGFβ-dependent effects on cells, we performed an assay with Mv1Lu cells, which are widely used in studies of TGFβ effects and are potently growth-inhibited by TGFβ [29]. […] [^3H]thymidine was added to cells for last two hours of incubation, and radioactivity incorporated into DNA was measured.

p38 MAP = p38 MAP (Homo sapiens, UniProt Q16539); conditions: Calbiochem product data sheets; read-out: IC50 p38 MAP in vitro; cited from earlier work
p38 MAP, sequence (Q16539 whole entry): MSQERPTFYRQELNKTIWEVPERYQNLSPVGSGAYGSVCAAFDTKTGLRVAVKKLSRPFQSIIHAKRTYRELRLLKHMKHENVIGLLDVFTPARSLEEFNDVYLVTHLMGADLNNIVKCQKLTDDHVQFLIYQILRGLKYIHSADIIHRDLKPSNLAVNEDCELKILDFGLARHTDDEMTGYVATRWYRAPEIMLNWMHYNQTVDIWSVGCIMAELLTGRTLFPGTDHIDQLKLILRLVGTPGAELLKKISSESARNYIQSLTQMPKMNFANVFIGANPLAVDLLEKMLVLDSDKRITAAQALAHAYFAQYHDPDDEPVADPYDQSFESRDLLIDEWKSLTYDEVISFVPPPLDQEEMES

[5] = in vitro kinase assay, 5 μM ATP, read-out: IC50 GST-TβRI in vitro

CC[C@H](CO)Nc1nc(NCc2ccccc2)c2ncn(C(C)C)c2n1 [roscovitine]
Effect on the kinase activity of GST-TβR-I (phosphorylation of GST-Smad3deltaMH1) (GST-TβR-I [1]): did not have an effect

C[S+]([O-])c1ccc(-c2nc(-c3ccc(F)cc3)c(-c3ccncc3)[nH]2)cc1 (stereo not shown) [SB203580]
Effect of low molecular weight inhibitors on TGFβ1-dependent phosphorylation of Smad2 [2]: significantly reduced | inhibition at 25 µM ([2]; Mv1Lu, 0.5 h, read-out: Inhibition of TGFβ1-induced Smad2 phosphorylation): 57%

Oc1ccc(-c2nc(-c3ccncc3)c(-c3ccc(F)cc3)[nH]2)cc1 [SB202190]
pIC50 (GST-TβR-I [1]; read-out: IC50 for inhibition of GST-TβR-I): 7.70

RQIKIWFQNRRMKWKKTQMGSPLNPISAVA (listed as Homo sapiens) [antp-Sm5A, penetratin fused to Smad5 C-terminus with serines replaced by alanine; specificity control, reference compound]
Inhibition of autophosphorylation of GST-TβR-I (GST-TβR-I [3]): No or only weak inhibition | Inhibition of autophosphorylation of TβR-I [4]: only a marginal effect | Reversion of the inhibitory action of TGFβ1 on DNA synthesis (Mv1Lu cells): did not have any effect | Effect of peptides on TGFβ1-dependent phosphorylation of endogenous Smad2 ([2]; Mv1Lu cells pretreated with peptide, 15 min TGFβ1, FIG. 6A): did not have any effect

CC1CNCCN1S(=O)(=O)c1cccc2cnccc12.Cl (stereo not shown) [H7]
Effect of low molecular weight inhibitors on TGFβ1-dependent phosphorylation of Smad2 [2]: weaker than that of SB203580 | pIC50 (GST-TβR-I [1]; [5]): 3.70 | Effect on the kinase activity of GST-TβR-I (phosphorylation of GST-Smad3deltaMH1) (GST-TβR-I [1]; in vitro kinase assay, FIG. 2A): inhibited

COc1cccc(-c2cc(=O)c3ccccc3o2)c1N [PD98058]
Effect on the kinase activity of GST-TβR-I (phosphorylation of GST-Smad3deltaMH1) (GST-TβR-I [1]; in vitro kinase assay, FIG. 2A): did not have an effect

Cc1nc(-c2ccncc2)c(-c2ccccc2)o1 [SC68376]
pIC50 (p38 MAP): 5.30 to 5.70 | pIC50 (GST-TβR-I [1]; [5]): 5.30

CCc1[nH]c(-c2ccc(OC)cc2)nc1-c1ccncc1 [SB202474]
pIC50 (GST-TβR-I [1]; [5]): 4.52

CN[C@@H]1C[C@H]2O[C@@](C)([C@@H]1OC)n1c3ccccc3c3c4c(c5c6ccccc6n2c5c31)C(=O)NC4 [staurosporine]
Effect on the kinase activity of GST-TβR-I (phosphorylation of GST-Smad3deltaMH1) (GST-TβR-I [1]): did not have an effect

Source: US20050136043A1, “TGFbeta signaling inhibitors” (Ludwig Institute for Cancer Research, priority 2003, published 2005)
